Measurements taken from PubChem BioAssay (NCI).
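Tested at 5 concentrations; 48 h exposure; 96-well plates; endpoints linearly interpolated, else capped at highest concentration. Here, GI50 denotes the concentration required for 50% inhibition of growth. TGI: concentration producing complete growth inhibition.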

Columns and labels:
Assay in all cases: inhibition of tumour cell growth, NCI panel, 48 h
SF-268 CNS = tested on: SF-268 CNS
OVCAR-4 ovarian = tested on: OVCAR-4 ovarian
KM12 colon = tested on: KM12 colon
HCT-116 colon = tested on: HCT-116 colon
SK-OV-3 ovarian = tested on: SK-OV-3 ovarian
MDA-MB-435 = tested on: MDA-MB-435
NCI-H226 lung = tested on: NCI-H226 lung
SK-MEL-5 melanoma = tested on: SK-MEL-5 melanoma
IGROV1 ovarian = tested on: IGROV1 ovarian
SN12C renal = tested on: SN12C renal
A549 NSCLC = tested on: A549 NSCLC
M14 melanoma = tested on: M14 melanoma
OVCAR-3 ovarian = tested on: OVCAR-3 ovarian
PC-3 prostate = tested on: PC-3 prostate
A498 renal = tested on: A498 renal
EKVX NSCLC = tested on: EKVX NSCLC
U251 CNS = tested on: U251 CNS
NCI-H23 lung = tested on: NCI-H23 lung
MCF7 breast = tested on: MCF7 breast
OVCAR-8 ovarian = tested on: OVCAR-8 ovarian
MDA-MB-468 breast = tested on: MDA-MB-468 breast
TK-10 renal = tested on: TK-10 renal
HCT-15 colon = tested on: HCT-15 colon
COLO 205 colon = tested on: COLO 205 colon
RXF 393 renal = tested on: RXF 393 renal
NCI/ADR-RES ovarian = tested on: NCI/ADR-RES ovarian
HL-60(TB) leukemia = tested on: HL-60(TB) leukemia
OVCAR-5 ovarian = tested on: OVCAR-5 ovarian
LOX IMVI melanoma = tested on: LOX IMVI melanoma
DU-145 prostate = tested on: DU-145 prostate
NCI-H460 lung = tested on: NCI-H460 lung
SK-MEL-28 melanoma = tested on: SK-MEL-28 melanoma
SF-295 CNS = tested on: SF-295 CNS
K-562 leukemia = tested on: K-562 leukemia
HT29 colon = tested on: HT29 colon
SF-539 CNS = tested on: SF-539 CNS
BT-549 breast = tested on: BT-549 breast
SW-620 colon = tested on: SW-620 colon
CCRF-CEM leukemia = tested on: CCRF-CEM leukemia
UACC-257 melanoma = tested on: UACC-257 melanoma
CAKI-1 renal = tested on: CAKI-1 renal
SNB-19 CNS = tested on: SNB-19 CNS
NCI-H522 lung = tested on: NCI-H522 lung
T-47D breast = tested on: T-47D breast
786-0 renal = tested on: 786-0 renal
HS 578T breast = tested on: HS 578T breast
HOP-62 NSCLC = tested on: HOP-62 NSCLC
HOP-92 NSCLC = tested on: HOP-92 NSCLC
HCC-2998 colon = tested on: HCC-2998 colon
RPMI-8226 leukemia = tested on: RPMI-8226 leukemia
ACHN renal = tested on: ACHN renal
MOLT-4 leukemia = tested on: MOLT-4 leukemia
MALME-3M melanoma = tested on: MALME-3M melanoma
SK-MEL-2 melanoma = tested on: SK-MEL-2 melanoma
UACC-62 melanoma = tested on: UACC-62 melanoma
SNB-75 CNS = tested on: SNB-75 CNS

CO[C@H]1CSS[C@@H]1Cn1nc(-c2ccc(Oc3ccccc3)cc2)c2c(N)ncnc21
GI50 (SF-268 CNS): 4.22 µM | TGI (SF-268 CNS): > 100 µM | GI50 (OVCAR-4 ovarian): 18.4 µM | TGI (OVCAR-4 ovarian): > 100 µM | GI50 (KM12 colon): 5.51 µM | TGI (KM12 colon): 28 µM | GI50 (HCT-116 colon): 4.19 µM | TGI (HCT-116 colon): 15.9 µM | GI50 (SK-OV-3 ovarian): 2.38 µM | TGI (SK-OV-3 ovarian): 7.36 µM | GI50 (MDA-MB-435): 2 µM | TGI (MDA-MB-435): 4.28 µM | GI50 (NCI-H226 lung): 9.1 µM | TGI (NCI-H226 lung): 50.3 µM | GI50 (SK-MEL-5 melanoma): 3.21 µM | TGI (SK-MEL-5 melanoma): 12.2 µM | GI50 (IGROV1 ovarian): 8.69 µM | TGI (IGROV1 ovarian): 35.3 µM | GI50 (SN12C renal): 6.52 µM | TGI (SN12C renal): 27.3 µM | GI50 (A549 NSCLC): 4.37 µM | TGI (A549 NSCLC): > 100 µM | GI50 (M14 melanoma): 1.86 µM | TGI (M14 melanoma): 3.78 µM | GI50 (OVCAR-3 ovarian): 7.82 µM | TGI (OVCAR-3 ovarian): 30.5 µM | GI50 (PC-3 prostate): 18 µM | TGI (PC-3 prostate): 75.1 µM | GI50 (A498 renal): 17.7 µM | TGI (A498 renal): 63.9 µM | GI50 (EKVX NSCLC): 4.87 µM | TGI (EKVX NSCLC): 30.1 µM | GI50 (U251 CNS): 6.89 µM | TGI (U251 CNS): 55.2 µM | GI50 (NCI-H23 lung): 8.51 µM | TGI (NCI-H23 lung): 42.1 µM | GI50 (MCF7 breast): 3.84 µM | TGI (MCF7 breast): 20.6 µM | GI50 (OVCAR-8 ovarian): 7.26 µM | TGI (OVCAR-8 ovarian): 53.7 µM | GI50 (MDA-MB-468 breast): 3.06 µM | TGI (MDA-MB-468 breast): 12.9 µM | GI50 (TK-10 renal): 8.05 µM | TGI (TK-10 renal): 25.7 µM | GI50 (HCT-15 colon): 6.09 µM | TGI (HCT-15 colon): 32.6 µM | GI50 (COLO 205 colon): 11.3 µM | TGI (COLO 205 colon): 24.7 µM | GI50 (RXF 393 renal): 6.13 µM | TGI (RXF 393 renal): 25.3 µM | GI50 (NCI/ADR-RES ovarian): 12.8 µM | TGI (NCI/ADR-RES ovarian): 64.6 µM | GI50 (HL-60(TB) leukemia): 4.16 µM | TGI (HL-60(TB) leukemia): 17.6 µM | GI50 (OVCAR-5 ovarian): 11.4 µM | TGI (OVCAR-5 ovarian): 41.3 µM | GI50 (LOX IMVI melanoma): 8.01 µM | TGI (LOX IMVI melanoma): 20.7 µM | GI50 (DU-145 prostate): 13.7 µM | TGI (DU-145 prostate): > 100 µM | GI50 (NCI-H460 lung): 2.69 µM | TGI (NCI-H460 lung): 7.89 µM | GI50 (SK-MEL-28 melanoma): 2.75 µM | TGI (SK-MEL-28 melanoma): 8.16 µM | GI50 (SF-295 CNS): 20.6 µM | TGI (SF-295 CNS): 63.4 µM | GI50 (K-562 leukemia): 2.83 µM | TGI (K-562 leukemia): 14.4 µM | GI50 (HT29 colon): 4.28 µM | TGI (HT29 colon): 18.1 µM | GI50 (SF-539 CNS): 14.4 µM | TGI (SF-539 CNS): 49.2 µM | GI50 (BT-549 breast): 18.4 µM | TGI (BT-549 breast): 34.6 µM | GI50 (SW-620 colon): 14.6 µM | TGI (SW-620 colon): > 100 µM | GI50 (CCRF-CEM leukemia): 4.49 µM | TGI (CCRF-CEM leukemia): 22.3 µM | GI50 (UACC-257 melanoma): 2.98 µM | TGI (UACC-257 melanoma): 12 µM | GI50 (CAKI-1 renal): 8.17 µM | TGI (CAKI-1 renal): 74.7 µM | GI50 (SNB-19 CNS): 5.96 µM | TGI (SNB-19 CNS): > 100 µM | GI50 (NCI-H522 lung): 11 µM | TGI (NCI-H522 lung): 27.2 µM | GI50 (T-47D breast): 2.81 µM | TGI (T-47D breast): 20.8 µM | GI50 (786-0 renal): 17.4 µM | TGI (786-0 renal): 58 µM | GI50 (HS 578T breast): 14.2 µM | TGI (HS 578T breast): 68.3 µM | GI50 (HOP-62 NSCLC): 3.25 µM | TGI (HOP-62 NSCLC): 26.9 µM | GI50 (HOP-92 NSCLC): 5.03 µM | TGI (HOP-92 NSCLC): 29.3 µM | GI50 (HCC-2998 colon): 4.31 µM | TGI (HCC-2998 colon): 18 µM | GI50 (RPMI-8226 leukemia): 13.5 µM | TGI (RPMI-8226 leukemia): 51.4 µM | GI50 (ACHN renal): 4.5 µM | TGI (ACHN renal): 37.3 µM | GI50 (MOLT-4 leukemia): 1.84 µM | TGI (MOLT-4 leukemia): 4.93 µM | GI50 (MALME-3M melanoma): 9.3 µM | TGI (MALME-3M melanoma): 23.1 µM | GI50 (SK-MEL-2 melanoma): 3.99 µM | TGI (SK-MEL-2 melanoma): 15 µM | GI50 (UACC-62 melanoma): 2.82 µM | TGI (UACC-62 melanoma): 12.7 µM | GI50 (SNB-75 CNS): 18.8 µM | TGI (SNB-75 CNS): 75.3 µM
